US9023835B2, “Agent for ameliorating blood-brain barrier disorders” (Nagasaki University, priority 2009, dated 2015)

How the values were obtained:
[1] = system: cerebral ischemia model mice (left middle cerebral artery infarction, reperfusion); assay: Tomato lectin staining of cerebral microvessels (blood-brain barrier disorder) in transient cerebral ischemia model mice; format: in vivo, C57BL/J6 mice; details: for tomato lectin signal (microvessel length) on the ipsilateral-to-ischemia side, cerebrocortical sensation region: 1 h MCAO, i.v. 1 h after reperfusion, ProTα 100 μg/kg, ProTα30 1 mg/kg, ProTα9 0.3 mg/kg, C-term 0.3 mg/kg; for suppression of cerebrovascular collapse (tomato lectin staining, cortex and striatum): Example 4, same experiment as Example 1, ProTα vs ProTα30
Protocol: Five minutes later, the whole body was perfused and fixed with para-formaldehyde (PFA); the brain was extracted and further treated with 4% PFA at room temperature for 3 hours. Thereafter, the brain was placed in 25% sucrose solution and allowed to stand at 4° C. overnight. The brain was freeze-embedded in the OCT compound, and a 50 μm-thick section was prepared on a plane including the cerebral cortex sensory area S1 (CS1) or S2 (CS2), bonded onto a silane-coated glass slide, and dried on a heater overnight. Thereafter, using Alexa Fluor488-labeled streptavidin (diluted 300 fold with 2% BSA/PBST), fluorescent staining of tomato lectin was performed, after which the specimen was fixed with the fluorescent antifading agent Fluoromount (Japan Tanner Corporation), and allowed to stand in the dark overnight, then examined using the LSM5 PASCAL confocal laser microscope (Carl Zeiss). Fluorescent signals were cumulatively analyzed for total fluorescence in an approximately 30 μm range by the deconvolution method.
After 0.5 hours of middle cerebral artery obstruction (MCAO), reperfusion was performed; 1 hour later, tomato lectin staining in the CS2 region was observed as a signal of approximately 30 μm length on the contralateral-to-ischemia side (the scale bar is 100 μm, ×20 objective lens).
The same experiment as that shown in Example 1 was performed using ProTα and the active form ProTα30, and the effects thereof were comparatively analyzed.
Furthermore, fluorescent staining of tomato lectin was performed in the same manner as in Example 1, and microvessels were analyzed.
When reperfusion was performed after 1 hour of middle cerebral artery occlusion (MCAO), tomato lectin staining of the cerebrocortical sensation region was observed as a signal roughly 30 μm long on the contralateral-to-ischemia side (Contra).

[2] = system: transient cerebral ischemia model mice; assay: Transient cerebral ischemia model mice: infarction region volume (TTC), clinical score, survival rate; details: for infarction region suppressing effect: 0.3 mg/kg i.v.; for infarction (infarction region volume, TTC): 24 h later, solvent alone 48%; for infarction (infarction region volume): solvent 48%
Protocol: Cerebral ischemia model mice generated by infarcting the left middle cerebral arteries of C57BL/J6 mice were maintained for 1 hour, and then reperfusion was performed. One hour after the reperfusion, a vehicle or ProTα30 (10 μg) was intracerebroventricularly administered (i.c.v.); the mice were examined over time every 24 hours to evaluate the motor function and survival rate. Also, clinical scores indicating movement disorders subsequent to left middle cerebral artery infarction were evaluated according to the rating system of 1: unable to completely extend the right forelimb, 2: rightward turning behavior, 3: unable to keep the posture and leans in the rightward direction, 4: loss of spontaneous movement, 5: death.
Meanwhile, 1 hour after ischemia and reperfusion, ProTα30 (0 μg (Veh), 0.1 μg or 10 μg) was intracerebroventricularly administered; the whole brain, extracted 24 hours thereafter was treated with 2% TTC (2,3,5-Triphenyltetrazolium chloride) staining solution in solution in PBS, and washed with PBS, after which five coronary sections of 1 mm thickness were taken with coverage of 2 mm anteriorly and 3 mm posteriorly from the bregma. […] The cerebral infarction region was evaluated according to the equation below. […] All volume on the ipsilateral side refers to the entire infarcted and non-infarcted regions on the ischemized side as divided on the median line, whereas all volume on the contralateral side refers to the entire region on the non-ischemized side.

[3] = system: photoinduced middle cerebral artery thrombosis (PIT) model mice; assay: Photoinduced middle cerebral artery thrombosis (PIT) model mice: infarction region volume, motor function; format: in vivo, C57BL/J6 mice; details: for infarction (infarction region volume): after 24 hours of ischemia, solvent 48%; for motor function evaluation (inability to keep the posture and leaning or loss of spontaneous movement): 24 hours after ischemia, ProTα 100 μg/kg, ProTα30 1 mg/kg, ProTα9 0.1-1 mg/kg
Protocol: The left middle cerebral artery of a C57BL/J6 mouse was exposed under the dura, and the photosensitizing dye rose bengal was administered at 30 mg/kg into a caudal vein, after which green light with a given wavelength was irradiated to the middle cerebral artery for 10 minutes to produce a thrombus, and induce infarction with this thrombus. One hour after light irradiation, vehicle, ProTα (100 μg/kg), ProTα30 (1 mg/kg), or ProTα9 (0.1 mg/kg, 0.3 mg/kg and 1 mg/kg) was administered to a caudal vein. Next, after 24 hours of ischemia, infarction region volume was measured to evaluate the motor function in the same manner as the above.

[4] = system: permanent cerebral ischemia model mice; assay: Permanent cerebral ischemia model mice: infarction region volume, clinical score, survival rate; details: no reperfusion, 24 h later, solvent 60%
Protocol: To permanent cerebral ischemia model mice generated by infarcting the middle cerebral arteries of C57BL/J6 mice, ProTα30 was intravenously administered (i.v.), without reperfusion, 2 hours and 4 hours after the start of ischemia. Next, 24 hours later, in the same manner as the above, infarction region volume was measured.
To permanent cerebral ischemia model mice generated by infarcting the middle cerebral arteries of C57BL/J6 mice, ProTα was administered into a caudal vein at 100 μg/kg, without reperfusion, 2, 7, or 12 hours after the start of ischemia. Next, in the same manner as the above, infarction region volume was measured. […] In the same mice, motor function was evaluated. Clinical scores indicating motor function disorders were evaluated in the same manner as Example 5.
Meanwhile, a vehicle or ProTα (100 μg) was administered into a caudal vein (i.v.) 2 and 4 hours after the start of ischemia, and the mice were examined over time every 24 hours to evaluate the motor function and survival rate.

[5] = system: permanent cerebral ischemia model rats; assay: Permanent cerebral ischemia model rats: infarction region volume, clinical score, survival rate
Protocol: To permanent cerebral ischemia model rats generated by infarcting the middle cerebral arteries of Sprague-Dawley rats, ProTα was administered into a caudal vein (i.v.), without reperfusion, 4 hours after the start of ischemia. Next, 24 hours later, infarction region volume was measured in the same manner as the above.
Furthermore, rats were examined over time every 24 hours to evaluate the motor function and survival rate.

[6] = 1 mg/kg caudal vein 1 hour after light irradiation

Substance | tomato lectin signal (microvessel length) on the ipsilateral-to-ischemia side, cerebrocortical sensation region [1] | infarction region suppressing effect [2] | infarction injury region, dose dependence ([3]; 0.1 mg/kg, 0.3 mg/kg and 1 mg/kg caudal vein) | infarction (infarction region volume) [3, 6] | motor function evaluation (inability to keep the posture and leaning or loss of spontaneous movement) [3] | suppression of cerebrovascular collapse (tomato lectin staining, cortex and striatum) [1] | infarction (infarction region volume, TTC) ([2]; 0.1 μg i.c.v. 1 h after reperfusion) | infarction (infarction region volume, TTC) ([2]; 10 μg i.c.v. 1 h after reperfusion) | motor function evaluation (clinical score) ([2]; 10 μg i.c.v., loss of spontaneous movement 3 days after ischemia and reperfusion) | clinical scores (hemiparalysis of degree 3) ([2]; 0.275 mg/kg i.v.) | infarction (infarction region volume) ([2]; 0.275 mg/kg i.v. once 1 hour after reperfusion) | clinical scores (hemiparalysis of degree 3) ([2]; 1 mg/kg i.v.) | infarction (infarction region volume) ([2]; 1 mg/kg i.v. once 1 hour after reperfusion) | survival rate ([2]; mouse, in vivo) | infarction (infarction region volume) ([4]; 1 mg/kg i.v. once, 2 hours after infarction) | infarction (infarction region volume) ([4]; i.v. twice, at 2 hours and 4 hours) | cerebrovascular destruction in the CS2 and striata on the ischemized side (tomato lectin staining) ([1]; 0.1 mg/kg i.v. 1 hour after reperfusion, examined 24 hours after reperfusion) | infarction (infarction region volume) ([3]; 100 μg/kg caudal vein 1 hour after infarction) | survival rate ([5]; 100 μg caudal vein, about 2 weeks later, non-dosing group 50% one day after ischemia) | infarction (infarction region volume) ([5]; 100 μg/kg i.v. 4 hours after infarction, 24 h later, solvent 40%)
ProTα9: polypeptide consisting of the 52nd amino acid to the 60th amino acid of rat prothymosin α, EVDEEEEEG (SEQ ID NO:6) (consensus amino acid sequence) | longer signals | cerebral infarction region suppressing effect | decreased in a dose-dependent fashion | 30% | significantly ameliorated | – | – | – | – | – | – | – | – | – | – | – | – | – | – | –
ProTα30: polypeptide consisting of the 49th amino acid to the 78th amino acid of rat prothymosin α (SEQ ID NO:4) (ADNEVDEEEEEGGEEEEEEEEGDGEEEDGD; consensus amino acid sequence) | longer signals | cerebral infarction region suppressing effect | – | 30% | significantly ameliorated | suppressing cerebrovascular collapse | 44% | 38% | significantly ameliorated | no effect was observed | 39% | ameliorated significantly | 13% | about 80% | 34% | 27% | – | – | – | –
C-term: C-end of ProTα, amino acid sequence TKKQKKTDEDD (SEQ ID NO: 50) [reference compound] | observed only as a fragment | – | – | – | – | – | – | – | – | – | – | – | – | – | – | – | – | – | – | –
prothymosin α (SDAAVDTSSEITTKDLKEKKEVVEEAEN; UniProt P26350 2-29, looked up) [ProTα] | longer signals | – | – | – | significantly ameliorated | suppressing cerebrovascular collapse | – | – | – | – | – | – | – | – | – | – | disappeared nearly completely | 23% | about 75% | 25%
